We go through six molecules from patent US5217997A, “Use of L-arginine in the treatment of hypertension and other vascular disorders” (priority 1992, dated 1993).

Entries after “also recorded” stand apart in the source; their conditions may differ. Where two headings read alike, the source gives them in different places.

Data set [1] relates to spontaneous hypertensive rats. In words: Tail blood pressure of 7-week-old spontaneous hypertensive rats after L- or D-arginine hydrochloride (Example 1). Format: in vivo, rat. On the procedure:
(§1) Male spontaneous hypertensive rats and Wistar Kyoto rats were purchased from Charles River (Wilmington, Mass.) and were fed and housed under identical conditions for at least five days before use. The rats were caged in groups of three with food and water ad libitum under an artificial light-dark cycle of twelve hours.
(§2) L- and D-arginine hydrochloride were obtained from Aldrich (Milwaukee, Wis.). Forty-five-day-old spontaneous hypertensive rats were injected with L-arginine hydrochloride, 5, 16, 50, 80, 100 and 500 mg/kg body weight, or D-arginine-hydrochloride, 80 and 100 mg/kg body weight, intraperitoneally,in a final volume of 1.0 ml buffered saline for four consecutive days. The control spontaneous hypertensive rats and Wistar Kyoto rats were injected with saline. Forty-five day old Wistar Kyoto strain rats were injected with 50 mg/kg body weight of L-arginine hydrochloride for four days. Each group consisted of four or five experimental animals. Blood pressure from the tail was measured before the first injection and twenty-four hours after the last arginine administration. Blood pressure was measured with anesthesia, using a pletysmograph.
(§3) Results are expressed as the means ±SEM. A two-way analysis of variance was performed to compare blood values between control, L-arginine and D-arginine treated spontaneous hypertensive rats. Specific differences between groups were tested by the Newman-Keuls test. The null hypothesis was rejected when the p value was less than 0.05.
(§4) The blood pressure of 7-week-old spontaneous hypertensive rats and Wistar Kyoto rats was monitored before and after administration of L- and D-arginine. […] At a dose as low as 16 mg/kg body weight, L-arginine lowered blood pressure by 10 mm Hg […].

Another data set concerns Wistar Kyoto rats. Description: Tail blood pressure of age-matched Wistar Kyoto rats after L- or D-arginine hydrochloride (Example 1). The format is in vivo, rat. The following applies: for effect on blood pressure: age-matched normotensive Wistar Kyoto rats. On the procedure: as §1, §2, §3, §4
For example, blood pressure of 7-week-old Wistar Kyoto rats remained unchanged following four days of treatment with L-arginine (50 mg/kg body weight), 122.3±1.3 mm Hg vs. 124.5±1.7 mm Hg for control and treated, respectively, n=3.

The next data set deals with anesthetized rabbit. The following applies: cited from earlier work.
Data set [2] relates to spontaneous hypertensive rats. Description: Systolic blood pressure in 7-week-old SHR, heme vs. arginine component and heme oxygenase inhibitor (Table 3). The format is in vivo, rat. The following applies: for reduction of blood pressure: "same dose (15 mg/kg body weight)", control increased by 7.7 mmHg; for Systolic blood pressure, after treatment: n=5, 4 days, heme-L-arginate = 15 mg hemin + 16 mg L-arginine per kg, hemin 15, L-arginine 16, ZnDPBG 7 mg/kg, 23 hours after last injection, *p<0.005 vs control 166.0±2.7; for Systolic blood pressure, after treatment / Systolic blood pressure, before treatment: ±SD; for Systolic blood pressure, before treatment: n=5, baseline. As for the experimental part: Applicants further examined whether the effect is due to heme or to the arginine component of heme arginate. In separate experiments, applicants treated 7-week-old spontaneous hypertensive rats with heme-L-arginate, hemin alone and L-arginine alone at the same dose (15 mg/kg body weight). […] At the same period, blood pressure in control spontaneous hypertensive rats increased by 7.7 mmHg.
Systolic blood pressure was measured by tail cuff pletysmograph before and 23 hours after the last injection. Results are the same ±SD, n=5 in each group; significance from control spontaneous hypertensive rats after 4 days of treatment with the vehicle (166.0±2.7), *p<0.005.

Data set [3] concerns spontaneous hypertensive rats. Particulars: young SHR; cited from earlier work.
The subject of another data set is renal cytochrome P-450. The following applies: in vivo; cited from earlier work.

Regarding `N=C(N)NCCC[C@@H](N)C(=O)O` [D-arginine], the “effect on blood pressure” value in data set [1] (80 and 100 mg/kg body weight, four days, 7-week-old SHR) is reported as “did not effect the blood pressure; also recorded: had no effect on blood pressure”; in data set [1] (concentrations lower than 80 mg/kg body weight, SHR), “did not alter blood pressure”; in the data set with Wistar Kyoto rats, “Neither L-arginine nor D-arginine had any effect on blood pressure”.

Regarding `N=C(N)NCCC[C@H](N)C(=O)O` [L-arginine, 2-amino-5-guanidinovaleric acid], in the data set with anesthetized rabbit (L-arginine administration), the “effect on the inhibition of N-monomethyl-L-arginine” value is on record as “abolished the inhibition of N-monomethyl-L-arginine within fifteen minutes”. For the same molecule, in data set [1] (16 mg/kg body weight i.p., four consecutive days, 7-week-old SHR), the “decrease in blood pressure” value worked out at 10 mm Hg. In data set [1] (100 mg/kg body weight (maximal dose) i.p., four days, 7-week-old SHR), the “maximal effect, decrease in blood pressure” value is recorded as 30 mm Hg. Also, in data set [1] (5-500 mg/kg i.p., four days, 7-week-old SHR), the “effect on blood pressure” value is reported as “dose-dependent decrease in blood pressure”. In addition, the “overall reduction of blood pressure” value in data set [1] (at the maximal dose, young SHR) was found to be 20%. The “effect on blood pressure of higher doses” value in data set [1] (doses higher than 100 mg/kg, 7-week-old SHR) is recorded as “did not lower blood pressure further”. In addition, in data set [2], the “reduction of blood pressure” value turned out to be 9.7 mmHg; the “Systolic blood pressure, after treatment” value worked out at 144.4 ± 3.0 mmHg; the “Systolic blood pressure, before treatment” value was 154.1 ± 4.5 mmHg. Also, in the data set on Wistar Kyoto rats (50 mg/kg body weight, four days, 7-week-old WKY, n=3, ±SEM, control 122.3±1.3), the “blood pressure, treated” value was determined as 124.5±1.7 mm Hg. In addition, the “effect on blood pressure” value in the data set on Wistar Kyoto rats is given as “Neither L-arginine nor D-arginine had any effect on blood pressure; also recorded: no effect was documented in normotensive rats”.

Take `CN=C(N)NCCC[C@H](N)C(=O)O` [N-monomethyl-L-arginine]: the “effect on mean arterial blood pressure” value in the data set with anesthetized rabbit is on record as “dose-dependent increase in mean arterial blood pressure”.

Take `[Cl][Sn][Cl]` [SnCl2]: the “effect on blood pressure” value in data set [3] is on record as “marked decrease in blood pressure”. Further, the “effect on renal cytochrome P-450” value in the data set on renal cytochrome P-450 is “depletion of renal cytochrome P-450”.

As to Hemin, in data set [2], the “reduction of blood pressure” value stood at 14.3 mmHg; the “Systolic blood pressure, after treatment” value is recorded as 142.2 ± 2.4 mmHg; the “Systolic blood pressure, before treatment” value worked out at 156.5 ± 3.3 mmHg.

As for “Zn-2,4-deuteropophyrin IX bis glycol [ZnDPBG]”, the “effect on blood pressure” value in data set [2] (inhibitor alone) is given as “did not have any effect on blood pressure”. Further, in data set [2], the “Systolic blood pressure, after treatment” value was 169.1 ± 2.5 mmHg and the “Systolic blood pressure, before treatment” value turned out to be 154.0 ± 4.0 mmHg.
